In patent US10364256B2 (GlaxoSmithKline Intellectual Property Development Limited, priority 2015, dated 2019):

Legend:
[1] = target: T1, Keap1 Kelch domain (321-609) / TAMRA-labeled 16mer NRF2 peptide (ETGE motif) (Homo sapiens, UniProt Q14145); experiment: NRF2-Keap1 FP Assay (Keap1 Kelch fluorescence polarization); assay type: binding; settings: 20 nM Keap1 (321-609), 8 nM Tamra labeled peptide
T1 construct: the Kelch domain (321-609) of Keap1 is used
How it was run: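 Compound dilutions (3-fold) were incubated 1 hr at room temperature with 20 nM Keap1 Kelch (321-609) and 8 nM TAMRA-labeled ETGE 16mer peptide. Buffer was 50 mM Tris pH 8.0, 100 mM NaCl, 5 mM MgCl2, 1 mM DTT, 2 mM CHAPS, 0.005% BSA. Fluorescence polarization (mP) was normalized to controls and fitted with a four-parameter equation to give pIC50.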

[2] = target: T2, full length Keap1 protein / full length NRF2 protein (Homo sapiens, UniProt Q14145); experiment: NRF2-Keap1 TR-FRET Low Protein Assay; assay type: binding; settings: 1.25 nM Keap1 FlagHis and 2.5 nM biotin-NRF2 added
T2 construct: full length NRF2 protein and full length Keap1 protein (Keap1 exists a dimer) are used; His
How it was run: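 Flag-tagged full-length Keap1 was preincubated with compound (3-fold series) for 2.25 h at 37 °C in Tris pH 8.0/MgCl2/NaCl/BSA/DTT/CHAPS. Biotin-Avi-NRF2 (added at 2.5 nM) was then bound for 1.25 h at 4 °C. Eu-streptavidin/anti-Flag-APC TR-FRET (665/615 nm) was read after 1 h at RT, and pIC50 came from a four-parameter fit.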

T1 sequence (Q14145 321-609): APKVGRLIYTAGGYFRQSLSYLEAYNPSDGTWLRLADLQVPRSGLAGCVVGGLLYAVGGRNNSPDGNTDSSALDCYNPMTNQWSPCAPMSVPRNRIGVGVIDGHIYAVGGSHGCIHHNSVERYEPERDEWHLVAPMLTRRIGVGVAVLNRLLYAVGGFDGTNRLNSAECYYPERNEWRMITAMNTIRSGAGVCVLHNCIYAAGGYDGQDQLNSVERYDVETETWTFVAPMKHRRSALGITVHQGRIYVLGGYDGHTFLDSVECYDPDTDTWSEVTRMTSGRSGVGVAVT
T2 sequence (Q14145 whole entry): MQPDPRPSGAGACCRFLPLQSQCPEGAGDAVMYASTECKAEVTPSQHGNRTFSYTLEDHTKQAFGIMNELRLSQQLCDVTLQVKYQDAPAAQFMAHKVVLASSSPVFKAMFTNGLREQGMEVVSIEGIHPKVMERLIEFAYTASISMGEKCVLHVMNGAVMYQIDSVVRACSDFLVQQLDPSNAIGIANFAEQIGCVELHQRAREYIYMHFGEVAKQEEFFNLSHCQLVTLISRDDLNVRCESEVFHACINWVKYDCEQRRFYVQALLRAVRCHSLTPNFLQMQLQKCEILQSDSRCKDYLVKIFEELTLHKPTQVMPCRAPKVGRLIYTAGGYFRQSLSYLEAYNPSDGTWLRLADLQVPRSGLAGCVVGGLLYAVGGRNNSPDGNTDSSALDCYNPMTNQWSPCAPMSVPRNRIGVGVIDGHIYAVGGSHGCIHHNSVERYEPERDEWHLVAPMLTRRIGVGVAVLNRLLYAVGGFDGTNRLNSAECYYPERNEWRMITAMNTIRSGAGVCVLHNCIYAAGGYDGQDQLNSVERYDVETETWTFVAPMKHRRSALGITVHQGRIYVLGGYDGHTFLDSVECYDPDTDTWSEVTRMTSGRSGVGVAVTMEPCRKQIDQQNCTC

Which IC50 [1] does the source give for “1-(3′-((2-chlorocyclohexyl)methoxy)-[1,1′-biphenyl]-3-yl)-5-((1,2-trans)-2-(1-methyl-1H-1,2,3-triazol-4-yl)cyclopropyl)-1H-pyrazole-4-carboxylic acid [Example 186]” here?
The IC50 was 0.1 to 1 µM.

And the IC50 [2]?
The IC50 was 0.01 to 0.1 µM.

`Cn1cc([C@@H]2C[C@H]2c2c(C(=O)O)cnn2-c2cccc(-c3cccc(-n4ncc5c4C(C)(C)CC5)c3)n2)nn1` (racemic) [Example 251, 1-(6-(3-(6,6-Dimethyl-5,6-dihydrocyclopenta[c]pyrazol-1(4H)-yl)phenyl)pyridin-2-yl)-5-(trans-2-(1-methyl-1H-1,2,3-triazol-4-yl)cyclopropyl)-1H-pyrazole-4-carboxylic Acid] was tested. Which IC50 [1] did it give?
The IC50 was 0.01 to 0.1 µM.

And the IC50 [2]?
Its IC50 is under 0.01 µM.

Which results are given for `Cn1cc([C@@H]2C[C@H]2c2c(C(=O)O)cnn2-c2cccc(-c3cccc(CN4Cc5ccccc5OC(C)(C)C4)c3)c2)nn1` (racemic) [Example 254, 1-(3′-((2,2-Dimethyl-2,3-dihydrobenzo[f][1,4]oxazepin-4(5H)-yl)methyl)-[1,1′-biphenyl]-3-yl)-5-(trans-2-(1-methyl-1H-1,2,3-triazol-4-yl)cyclopropyl)-1H-pyrazole-4-carboxylic Acid]?
IC50 [1]: 0.01 to 0.1 µM; IC50 [2]: 0.01 to 0.1 µM

How did the IC50 [1] turn out when `Cn1cc([C@H]2C[C@@H]2c2c(C(=O)O)cnn2-c2cccc(-c3cccc(C(=O)N4CCCCC4)c3F)c2)nn1` (racemic) [Example 258, 1-(2′-Fluoro-3′-(piperidine-1-carbonyl)-[1,1′-biphenyl]-3-yl)-5-(trans-2-(1-methyl-1H-1,2,3-triazol-4-yl)cyclopropyl)-1H-pyrazole-4-carboxylic Acid] was run?
The IC50 was 0.01 to 0.1 µM.

And the IC50 [2]?
Its IC50 is under 0.01 µM.

For `Cn1cc([C@H]2C[C@@H]2c2c(C(=O)O)cnn2-c2cccc(-c3cccc(C(=O)N4CCCC(C)(C)C4)c3F)c2)nn1` (racemic) [Example 259, 1-(2′-Fluoro-3′-(3,3-dimethylpiperidine-1-carbonyl)-[1,1′-biphenyl]-3-yl)-5-(trans-2-(1-methyl-1H-1,2,3-triazol-4-yl)cyclopropyl)-1H-pyrazole-4-carboxylic Acid], which IC50 [1] is on record?
Its IC50 is 0.01 to 0.1 µM.

And the IC50 [2]?
Its IC50 is under 0.01 µM.

How did the IC50 [1] turn out when `Cn1cc([C@H]2C[C@@H]2c2c(C(=O)O)cnn2-c2cccc(-c3cccc(C(=O)N4CCCCCC4)c3F)c2)nn1` (racemic) [Example 260, 1-(2′-Fluoro-3′-(azepane-1-carbonyl)-[1,1′-biphenyl]-3-yl)-5-(trans-2-(1-methyl-1H-1,2,3-triazol-4-yl)cyclopropyl)-1H-pyrazole-4-carboxylic Acid] was run?
The IC50 was 0.01 to 0.1 µM.

What about the IC50 [2] of the same compound?
The IC50 was under 0.01 µM.

For `CC1CC(C)CN(C(=O)c2cccc(-c3cccc(-n4ncc(C(=O)O)c4[C@@H]4C[C@H]4c4cn(C)nn4)c3)c2F)C1` (mixture of isomers) [Example 263, 1-(3′-(3,5-Dimethylpiperidine-1-carbonyl)-2′-fluoro-[1,1′-biphenyl]-3-yl)-5-(2-(1-methyl-1H-1,2,3-triazol-4-yl)cyclopropyl)-1H-pyrazole-4-carboxylic Acid], which IC50 [1] is on record?
The IC50 was 0.01 to 0.1 µM.

And the IC50 [2]?
The IC50 was under 0.01 µM.

`COCC1CCCCN1C(=O)c1cccc(-c2cccc(-n3ncc(C(=O)O)c3C3C[C@H]3c3cn(C)nn3)c2)c1F` (mixture of isomers) [Example 264, 1-(3′-(2-(Methoxymethyl)piperidine-1-carbonyl)-2′-fluoro-[1,1′-biphenyl]-3-yl)-5-(trans-2-(1-methyl-1H-1,2,3-triazol-4-yl)cyclopropyl)-1H-pyrazole-4-carboxylic Acid] was tested. Which IC50 [1] did it give?
The IC50 was 0.01 to 0.1 µM.

And the IC50 [2]?
Its IC50 is under 0.01 µM.

How did the IC50 [1] turn out when `CC(C)CN(C)C(=O)c1cccc(-c2cccc(-n3ncc(C(=O)O)c3[C@@H]3C[C@H]3c3cn(C)nn3)c2)c1F` (racemic) [Example 266, 1-(2′-Fluoro-3′(isobutyl(methyl)carbamoyl)-[1,1′-biphenyl]-3-yl)-5-(trans-2-(1-methyl-1H-1,2,3-triazol-4-yl)cyclopropyl)-1H-pyrazole-4-carboxylic Acid] was run?
Its IC50 is 0.01 to 0.1 µM.

And the IC50 [2]?
The IC50 was under 0.01 µM.

With `CC(Oc1cccc(-c2cccc(-n3ncc(C(=O)O)c3[C@@H]3C[C@H]3c3cn(C)nn3)n2)c1)C1CCCCC1` (relative stereo) [Example 249, 1-(6-(3-(1-Cyclohexylethoxy)phenyl)pyridin-2-yl)-5-(trans-2-(1-methyl-1H-1,2,3-triazol-4-yl)cyclopropyl)-1H-pyrazole-4-carboxylic Acid] as the compound, how does the IC50 [1] read?
Its IC50 is 0.01 to 0.1 µM.

What about the IC50 [2] of the same compound?
The IC50 was under 0.01 µM.

How did the IC50 [1] turn out when `CCC1Cc2ccccc2CN(Cc2cccc(-c3cccc(-n4ncc(C(=O)O)c4[C@@H]4C[C@H]4c4cn(C)nn4)c3)c2)C1` (relative stereo) [Example 252, 1-(3′-((4-Ethyl-4,5-dihydro-1H-benzo[c]azepin-2(3H)-yl)methyl)-[1,1′-biphenyl]-3-yl)-5-(trans-2-(1-methyl-1H-1,2,3-triazol-4-yl)cyclopropyl)-1H-pyrazole-4-carboxylic Acid] was run?
Its IC50 is 0.01 to 0.1 µM.

And the IC50 [2]?
Its IC50 is 0.01 to 0.1 µM.

With `C[C@@H]1CCC[C@H](C)N1C(=O)c1cccc(-c2cccc(-n3ncc(C(=O)O)c3[C@H]3C[C@@H]3c3cn(C)nn3)c2)c1F` (single isomer, unassigned) [Example 261] as the compound, how does the IC50 [1] read?
The IC50 was 0.01 to 0.1 µM.

And the IC50 [2]?
The IC50 was under 0.01 µM.

Which results are given for `C[C@@H]1CCC[C@H](C)N1C(=O)c1cccc(-c2cccc(-n3ncc(C(=O)O)c3[C@@H]3C[C@H]3c3cn(C)nn3)c2)c1F` (single isomer, unassigned) [Example 262]?
IC50 [1]: 0.01 to 0.1 µM; IC50 [2]: < 0.01 µM

`CCCC1CCCCN1C(=O)c1cccc(-c2cccc(-n3ncc(C(=O)O)c3C3CC3)c2)c1F` (stereo in doubt) [Example 54d, 5-Cyclopropyl-1-{3-[2-fluoro-3-((2R)-2-propylpiperidine-1-carbonyl)phenyl]phenyl}-1H-pyrazole-4-carboxylic Acid] was tested. Which IC50 [1] did it give?
The IC50 was 0.01 to 0.1 µM.

What about the IC50 [2] of the same compound?
Its IC50 is 0.01 to 0.1 µM.

What does the source list for `O=C(O)c1cnn(-c2cccc(-c3cccc(C(=O)N(CC4CC4)CC4CC4)c3F)c2)c1C1CC1` [Example 8, 1-(3-{3-[Bis(cyclopropylmethyl)carbamoyl]-2-fluorophenyl}phenyl)-5-cyclopropyl-1H-pyrazole-4-carboxylic Acid]?
IC50 [1]: 0.01 to 0.1 µM; IC50 [2]: 0.01 to 0.1 µM

Which results are given for `CC(C)CC1CCCCN1C(=O)c1cccc(-c2cccc(-n3ncc(C(=O)O)c3C3CC3)c2)c1F` (centres unmarked) [Example 28, 5-Cyclopropyl-1-(3-{2-fluoro-3-[2-(2-methylpropyl)piperidine-1-carbonyl]phenyl}phenyl)-1H-pyrazole-4-carboxylic Acid]?
IC50 [1]: 0.01 to 0.1 µM; IC50 [2]: 0.01 to 0.1 µM

Which IC50 [1] does the source give for `CC1CCCN(C(=O)c2cccc(-c3cccc(-n4ncc(C(=O)O)c4C4CC4)c3)c2F)CC1` (centres unmarked) [Example 29, 5-Cyclopropyl-1-{3-[2-fluoro-3-(4-methylazepane-1-carbonyl)phenyl]phenyl}-1H-pyrazole-4-carboxylic Acid] here?
Its IC50 is 0.01 to 0.1 µM.

And the IC50 [2]?
The IC50 was 0.01 to 0.1 µM.

Which results are given for `CC1CCC(C)N(C(=O)c2cccc(-c3cccc(-n4ncc(C(=O)O)c4C4CC4)c3)c2F)C1` (centres unmarked) [Example 30, 5-Cyclopropyl-1-{3-[3-(2,5-dimethylpiperidine-1-carbonyl)-2-fluorophenyl]phenyl}-1H-pyrazole-4-carboxylic Acid]?
IC50 [1]: 0.01 to 0.1 µM; IC50 [2]: 0.1 to 1 µM

What does the source list for `O=C(O)c1cnn(-c2cccc(-c3cccc(C(=O)N4CCCC5CCCCC54)c3F)c2)c1C1CC1` (centres unmarked) [Example 31, 5-Cyclopropyl-1-{3-[3-(decahydroquinoline-1-carbonyl)-2-fluorophenyl]phenyl}-1H-pyrazole-4-carboxylic Acid]?
IC50 [1]: 0.1 to 1 µM; IC50 [2]: 0.01 to 0.1 µM
